The text below walks through data of patent publication US12350267B2, “Bile acid recycling inhibitors for treatment of pediatric cholestatic liver diseases” (SHIRE HUMAN GENETIC THERAPIES, INC., priority 2011, dated 2025).

Data set [1] relates to fecal bile acid excretion and plasma bile acid concentrations. Description: ZDF rat study of 264W94: fecal bile acid excretion and plasma bile acid concentrations. The following applies: 2 weeks. The format is in vivo, Male Zucker diabetic fatty rats (ZDF/GmiCrl-fa/fa). On the procedure:
Animal preparation. Male Zucker diabetic fatty rats (ZDF/GmiCrl-fa/fa) were purchased from Charles River (Raleigh, NC) and housed under controlled conditions (12:12 light-dark cycle, 24° C. and 50% relative humidity) with free access to rodent food (Purina 5008, Harlan Teklad, Indianapolis, IN). All rats arrived at seven weeks of age (±3 days). After a one-week acclimation period, rats were anesthetized with isoflurane (Abbott Laboratories, IL) and tail-vein blood samples were collected at 9 am without fasting. Blood glucose levels were measured using a glucometer (Bayer, Leverkusen, Germany). In order to ensure balanced treatment groups, ZDF rats were assigned to six treatment groups based upon baseline glucose: vehicle (0.5% HPMC, 0.1% Tween80) and five doses of 264W94 (0.001, 0.01, 0.1, 1, 10 mg/kg). All treatments were given via oral gavage twice a day and animals were followed for two weeks with blood samples collected from tail vein at the end of each week at 9 am without fasting. Fecal samples were collected for 24 hours during the second week of treatment.
Measurement of clinical chemistry parameters. Non-esterified fatty acids (NEFA), bile acids, and bile acids in fecal extraction were measured using the Olympus AU640 clinical chemistry analyzer (Beckman Coulter, Irving, TX).

Data set [2] concerns Postprandial Total Serum Bile Acids. Kind of data set: Time to onset of activity of LUM001 on postprandial serum bile acids in dogs. It is filed as in vivo, Beagle dogs. The following applies: dog; dose increased above ED50 level to 1 mg/kg. On the procedure: Animal Study on the Duration of Action and Time to Onset of ASBTI Activity of a Single Oral Dose of LUM001 on Postprandial Total Serum Bile Acids in Beagle Dogs
Test Compound: LUM001—Form I
(§1) Dosage preparation and administration: LUM001 was dissolved in water at concentrations that required the administration of 0.2 ml/kg of solution. Solutions were placed into gelatin capsules, Torpac Inc., size 13 Batch 594, East Hanover NJ, and administered orally.
(§2) Dogs: Male beagle dogs were obtained from Covance Research Products, Cumberland VA or Marshall Farms USA, Inc., North Rose NY. A total of 20 dogs, 1 to 5 years old, 6.8 to 15.6 kg body weight, were used in these experiments. The dogs were conditioned to a 12 hour light/dark cycle and maintained on a feeding restriction of 1 hour per day access to food (Richman Standard Certified Canine Diet #5007, PMI Nutrition, Inc., St Louis MO) from 7 to 8 AM. They were trained to eat a special meal promptly within 20 minutes when presented (1 can. 397 g, Evanger's 100% Beef for Dogs, Evanger's Dog and Cat Food Co., Inc., Wheeling IL, mixed with 50 g of sharp cheddar cheese).
Serum Total Bile Acid (SBA) Measurement: SBA was measured by an enzymatic assay. SBA values are expressed as μg of total bile acids/ml of serum. […]

Data set [3] has the same test system. Description: Duration of action of LUM001 on dog serum bile acids, Method 2 (dosing before feeding). The following applies: dogs n=9, 0.05 mg/kg (2nd dose column), dosing time 0 hr, feeding time 2 hr. It is filed as in vivo, Beagle dogs. Here is the method:
as §1, §2
Serum Total Bile Acid (SBA) Measurement: SBA was measured by an enzymatic assay. SBA values are expressed as μg of total bile acids/ml of serum.
Experiments to Measure the Duration of Action of LUM001: In dogs a single experimental meal produces a postprandial rise in SBA that is elevated to a peak at 1 hour after feeding and constant for an additional 3 hours. Previous experiments (2) indicate that LUM001 remains active for more than 4.5 hours. […]

The subject of data set [4] is serum bile acids and fecal bile acids. Description: Phase 1 ascending multiple oral doses of LUM001 in healthy subjects: serum and fecal bile acids. It is filed as in vivo. Conditions: healthy adult subjects; multiple oral doses qAM, 28 days. On the procedure: A Randomized, Double-Blind, Placebo Controlled, Safety, Tolerability, Pharmacokinetic, and Pharmacodynamic Study of Ascending Multiple Oral Doses of LUM001 in Healthy Subjects
This Phase 1 study was a randomized, double-blind, placebo-controlled study of ascending multiple oral doses of LUM001 in healthy, adult subjects. This study was conducted at a single center. There were 13 LUM001 dosing panels: 10, 20, 60, 100, and 20 mg every morning (qAM) (2) (i.e., the regimen was tested a second time in the study), 5 mg every evening (qPM), 0.5, 1, 2.5, 5, 2.5 (2), 5 (2), and 0.5 to 5 mg qAM dose titration. Most of the dosing panels included subjects treated with matching placebo. […]
SBA were analyzed as part of the routine clinical analysis of the serum samples collected at each time point.
Fecal Bile Acid Analysis: Fecal samples were collected for all panels except the dose-titration panel, 2.5 (2) and 5 mg (2), on Days 9 through 14 and 23 through 28 (data shown in FIG. 4). Twenty-four hour FBA excretions were quantified by Pharmacia for Days 9 through 14 and 23 through 28. […] The weight of each 24-hour fecal collection was recorded on the CRFs. […]
An aliquot for each 24-hour fecal sample collected on Days 23 through 28 was combined, homogenized, and analyzed for bile acid species concentrations by ANAPHARM. […]

Data set [5] is described as follows: Pharmacokinetics of LUM001 in pediatric subjects (study NB-00-02-014). The format is in vivo. Conditions: measured on day eight. On the procedure:
LUM001 has been administered to forty patients under the age of 18 years old. […] The drug was administered once-a-day (QD) in the morning for fourteen days. […] These doses are similar to those using to treat children with cholestatic diseases.

The test system of data set [6] is Postprandial Total Serum Bile Acids. Conditions: dog; previous experiments (2); cited from earlier work.
A further data set relates to plasma bile acid levels. Description: Plasma bile acid levels of ZDF rats after ascending doses of SC-435 and LUM002. The format is in vivo, Male ZDF rats. The following applies: ZDF rats n=4; oral gavage twice a day for 2 weeks; all doses (SC-435 1, 10 or 30 mg/kg; LUM002 0.3, 1, 3, 10 or 30 mg/kg). Here is the method: FIG. 2. Plasma bile acid levels of ZDF rats after administration of ascending doses of SC-435 and LUM002. Male ZDF rats (n=4) were administered vehicle, SC-435 (1, 10 or 30 mg/kg) or LUM002 (0.3, 1, 3, 10 or 30 mg/kg) by oral gavage twice a day for 2 weeks. Plasma bile acid levels were determined at the end of the second week. Data are expressed as mean values±SEM.
Plasma bile acid levels of ZDF rats after administration of ascending doses of SC-435 and LUM002. Male ZDF rats (n=4) were administered vehicle, SC-435 (1, 10 or 30 mg/kg) or LUM002 (0.3, 1, 3, 10 or 30 mg/kg) by oral gavage twice a day for 2 weeks. Plasma bile acid levels were determined at the end of the second week. […] Data are expressed as mean values±SEM.

The mark [7] stands for this setting: ZDF rats, oral gavage twice a day.

Consider `CCCC[C@]1(CC)CS(=O)(=O)c2cc(OC)c(OC)cc2[C@@H](c2ccccc2)N1` [Compound 264W94], for which, in data set [1] (0.001-10 mg/kg oral gavage twice a day, maximum elevation (up to)), the “Fecal bile acid concentrations elevated compared to vehicle treated rats” value was “up to 6.5 fold”. Moreover, the “Plasma bile acid concentrations” value in data set [1] (ZDF rats, 0.001-10 mg/kg oral gavage twice a day) is on record as “decreased dose-dependently”. For the same molecule, in data set [1] (setting [7]), the “ED50 for elevation of fecal bile acid concentrations” value came out at 0.17 mg/kg and the “Fecal NEFA” value is “slightly increased”.
Regarding `CCCCC1(CCCC)CS(=O)(=O)c2ccc(N(C)C)cc2[C@@H](c2ccc(OCc3ccc(C[N+]45CCN(CC4)CC5)cc3)cc2)[C@H]1O` [LUM001], the “Onset time to significant SBA lowering versus ED50 dose” value in data set [2] is listed as “did not shorten”. Also, in data set [3], the “Serum Bile Acid, Mean” value was determined as 1.7 µg/mL. In data set [4], the Fecal bile acids result is given as “significant increase” and the Serum bile acids entry is on record as “significant reduction”. In addition, in data set [5] (Subject 0510, 5.0 mg QD (168.4 μg/kg)), the “Average serum drug exposure” value is 0,0 ng/ml. Also, the “Systemic exposure / absorption by the children” value in data set [5] (patients under 18, QD in the morning) is recorded as “minimally absorbed”. In data set [6], the “Time LUM001 remains active (previous experiments)” value was “more than 4.5 hours”.
For the molecule `CCCC[C@]1(CC)CS(=O)(=O)c2ccc(N(C)C)cc2[C@@H](c2cccc(NC(=O)N[C@@H]3O[C@H](COS(=O)(=O)[O-])[C@@H](O)[C@H](OCc4ccccc4)[C@H]3O)c2)[C@H]1O.[K+]` [LUM002], in the data set with plasma bile acid levels, the “Plasma bile acid levels” value is “decreased”.
On the same count and under the same terms, with `CCCCC1(CCCC)CS(=O)(=O)c2ccc(N(C)C)cc2[C@@H](c2ccc(OCCCC[N+]34CCN(CC3)CC4)cc2)[C@H]1O.CS(=O)(=O)[O-]` [SC-435, 1-[4-[4-[(4R,5R)-3,3-dibutyl-7-(dimethylamino)-2,3,4,5-tetrahydro-4-hydroxy-1,1-dioxido-1-benzothiepin-5-yl]phenoxy]butyl]4-aza-1-azoniabicyclo[2.2.2]octane methanesulfonate salt, reference compound] the entry was “decreased”.
